The NIST ThermoML archive (doi:10.1021/je0302304)
Numbers after ± are expanded uncertainties.

Assay: refractive index (Na D-line) (dimensionless); xn = mol fraction of the nth substance listed
Settings: 101.32 kPa, Liquid, Standard Abbe refractometry

COCCOC [1,2-dimethoxyethane] + CCO
refractive index (288.15 K, x1 = 0.0045): 1.3633 ± 0.0005
refractive index (288.15 K, x1 = 0.0086): 1.3634 ± 0.0005
refractive index (288.15 K, x1 = 0.0125): 1.3635 ± 0.0005
refractive index (288.15 K, x1 = 0.0165): 1.3636 ± 0.0005
refractive index (288.15 K, x1 = 0.0205): 1.3638 ± 0.0005
refractive index (288.15 K, x1 = 0.0305): 1.3642 ± 0.0005
refractive index (288.15 K, x1 = 0.05): 1.3649 ± 0.0005
refractive index (288.15 K, x1 = 0.1): 1.3666 ± 0.0005
refractive index (288.15 K, x1 = 0.15): 1.3681 ± 0.0005
refractive index (288.15 K, x1 = 0.2): 1.3695 ± 0.0005
refractive index (288.15 K, x1 = 0.25): 1.3709 ± 0.0005
refractive index (288.15 K, x1 = 0.3): 1.3721 ± 0.0005
refractive index (288.15 K, x1 = 0.35): 1.3732 ± 0.0005
refractive index (288.15 K, x1 = 0.4): 1.3742 ± 0.0005
refractive index (288.15 K, x1 = 0.45): 1.3751 ± 0.0005
refractive index (288.15 K, x1 = 0.5): 1.376 ± 0.0005
refractive index (288.15 K, x1 = 0.55): 1.3768 ± 0.0005
refractive index (288.15 K, x1 = 0.6): 1.3776 ± 0.0005
refractive index (288.15 K, x1 = 0.6499): 1.3783 ± 0.0005
refractive index (288.15 K, x1 = 0.7): 1.379 ± 0.0005
refractive index (288.15 K, x1 = 0.7499): 1.3796 ± 0.0005
refractive index (288.15 K, x1 = 0.7999): 1.3802 ± 0.0005
refractive index (288.15 K, x1 = 0.85): 1.3808 ± 0.0005
refractive index (288.15 K, x1 = 0.9): 1.3813 ± 0.0005
refractive index (288.15 K, x1 = 0.9499): 1.3818 ± 0.0005
refractive index (288.15 K, x1 = 1): 1.3824 ± 0.0005
refractive index (298.15 K, x1 = 0.0045): 1.3592 ± 0.0005
refractive index (298.15 K, x1 = 0.0086): 1.3593 ± 0.0005
refractive index (298.15 K, x1 = 0.0125): 1.3594 ± 0.0005
refractive index (298.15 K, x1 = 0.0165): 1.3596 ± 0.0005
refractive index (298.15 K, x1 = 0.0205): 1.3597 ± 0.0005
refractive index (298.15 K, x1 = 0.0305): 1.3601 ± 0.0005
refractive index (298.15 K, x1 = 0.05): 1.3608 ± 0.0005
refractive index (298.15 K, x1 = 0.1): 1.3624 ± 0.0005
refractive index (298.15 K, x1 = 0.15): 1.3639 ± 0.0005
refractive index (298.15 K, x1 = 0.2): 1.3652 ± 0.0005
refractive index (298.15 K, x1 = 0.25): 1.3664 ± 0.0005
refractive index (298.15 K, x1 = 0.3): 1.3676 ± 0.0005
refractive index (298.15 K, x1 = 0.35): 1.3686 ± 0.0005
refractive index (298.15 K, x1 = 0.4): 1.3696 ± 0.0005
refractive index (298.15 K, x1 = 0.45): 1.3705 ± 0.0005
refractive index (298.15 K, x1 = 0.5): 1.3714 ± 0.0005
refractive index (298.15 K, x1 = 0.55): 1.3722 ± 0.0005
refractive index (298.15 K, x1 = 0.6): 1.3729 ± 0.0005
refractive index (298.15 K, x1 = 0.6499): 1.3736 ± 0.0005
refractive index (298.15 K, x1 = 0.7): 1.3742 ± 0.0005
refractive index (298.15 K, x1 = 0.7499): 1.3748 ± 0.0005
refractive index (298.15 K, x1 = 0.7999): 1.3754 ± 0.0005
refractive index (298.15 K, x1 = 0.85): 1.3759 ± 0.0005
refractive index (298.15 K, x1 = 0.9): 1.3764 ± 0.0005
refractive index (298.15 K, x1 = 0.9499): 1.3768 ± 0.0005
refractive index (298.15 K, x1 = 1): 1.3772 ± 0.0005
refractive index (308.15 K, x1 = 0.0045): 1.3552 ± 0.0005
refractive index (308.15 K, x1 = 0.0086): 1.3553 ± 0.0005
refractive index (308.15 K, x1 = 0.0125): 1.3554 ± 0.0005
refractive index (308.15 K, x1 = 0.0165): 1.3555 ± 0.0005
refractive index (308.15 K, x1 = 0.0205): 1.3557 ± 0.0005
refractive index (308.15 K, x1 = 0.0305): 1.356 ± 0.0005
refractive index (308.15 K, x1 = 0.05): 1.3566 ± 0.0005
refractive index (308.15 K, x1 = 0.1): 1.3582 ± 0.0005
refractive index (308.15 K, x1 = 0.15): 1.3596 ± 0.0005
refractive index (308.15 K, x1 = 0.2): 1.3609 ± 0.0005
refractive index (308.15 K, x1 = 0.25): 1.3621 ± 0.0005
refractive index (308.15 K, x1 = 0.3): 1.3631 ± 0.0005
refractive index (308.15 K, x1 = 0.35): 1.3641 ± 0.0005
refractive index (308.15 K, x1 = 0.4): 1.3651 ± 0.0005
refractive index (308.15 K, x1 = 0.45): 1.3659 ± 0.0005
refractive index (308.15 K, x1 = 0.5): 1.3667 ± 0.0005
refractive index (308.15 K, x1 = 0.55): 1.3675 ± 0.0005
refractive index (308.15 K, x1 = 0.6): 1.3682 ± 0.0005
refractive index (308.15 K, x1 = 0.6499): 1.3688 ± 0.0005
refractive index (308.15 K, x1 = 0.7): 1.3694 ± 0.0005
refractive index (308.15 K, x1 = 0.7499): 1.37 ± 0.0005
refractive index (308.15 K, x1 = 0.7999): 1.3705 ± 0.0005
refractive index (308.15 K, x1 = 0.85): 1.371 ± 0.0005
refractive index (308.15 K, x1 = 0.9): 1.3715 ± 0.0005
refractive index (308.15 K, x1 = 0.9499): 1.3719 ± 0.0005
refractive index (308.15 K, x1 = 1): 1.3722 ± 0.0005
refractive index (318.15 K, x1 = 0.0045): 1.351 ± 0.0005
refractive index (318.15 K, x1 = 0.0086): 1.3511 ± 0.0005
refractive index (318.15 K, x1 = 0.0125): 1.3512 ± 0.0005
refractive index (318.15 K, x1 = 0.0165): 1.3513 ± 0.0005
refractive index (318.15 K, x1 = 0.0205): 1.3515 ± 0.0005
refractive index (318.15 K, x1 = 0.0305): 1.3518 ± 0.0005
refractive index (318.15 K, x1 = 0.05): 1.3524 ± 0.0005
refractive index (318.15 K, x1 = 0.1): 1.3539 ± 0.0005
refractive index (318.15 K, x1 = 0.15): 1.3552 ± 0.0005
refractive index (318.15 K, x1 = 0.2): 1.3565 ± 0.0005
refractive index (318.15 K, x1 = 0.25): 1.3576 ± 0.0005
refractive index (318.15 K, x1 = 0.3): 1.3586 ± 0.0005
refractive index (318.15 K, x1 = 0.35): 1.3596 ± 0.0005
refractive index (318.15 K, x1 = 0.4): 1.3605 ± 0.0005
refractive index (318.15 K, x1 = 0.45): 1.3613 ± 0.0005
refractive index (318.15 K, x1 = 0.5): 1.362 ± 0.0005
refractive index (318.15 K, x1 = 0.55): 1.3628 ± 0.0005
refractive index (318.15 K, x1 = 0.6): 1.3634 ± 0.0005
refractive index (318.15 K, x1 = 0.6499): 1.364 ± 0.0005
refractive index (318.15 K, x1 = 0.7): 1.3646 ± 0.0005
refractive index (318.15 K, x1 = 0.7499): 1.3652 ± 0.0005
refractive index (318.15 K, x1 = 0.7999): 1.3657 ± 0.0005
refractive index (318.15 K, x1 = 0.85): 1.3661 ± 0.0005
refractive index (318.15 K, x1 = 0.9): 1.3666 ± 0.0005
refractive index (318.15 K, x1 = 0.9499): 1.3669 ± 0.0005
refractive index (318.15 K, x1 = 1): 1.3672 ± 0.0005
